This note sets out measurements from patent US8530493B2, “Indolopyridines as Eg5 kinesin modulators” (4SC AG, priority 2006, dated 2013).

Molecules are shown by their SMILES.

In the test the test system is RKO p21 uninduced (proliferating) colon adenocarcinoma cells. Nature of the test: Alamar Blue cell viability assay, RKO p21 uninduced (proliferating). The test is classed as cell-based. The following applies: Homo sapiens, Table B3, anti-proliferative/cytotoxic activity, 72 hours, read-out: −log EC50 RKO p21 uninduced (proliferating) (converted). Put shortly:
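Viability read by Alamar Blue fluorescence (ex 544, em 590 nm), normalised to untreated wells, after 72 h, 37° C, 5% CO2 compound exposure in triplicate. Cells were uninduced (no Ponasterone A), proliferating RKO colon carcinoma p27 or p21 subclones in DMEM with 10% FCS; values are −log EC50 (mol/l).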

For `C=CCN(C)CCCN1C(=O)N2[C@H](c3cccc(O)c3)c3[nH]c4ccc(OC(F)F)cc4c3C[C@@]2(C)C1=O` (racemic) [Example 184, (3aSR,10RS)-2-[3-(Allyl-methyl-amino)-propyl]-6-(1,1-difluoro-methoxy)-10-(3-hydroxy-phenyl)-3a-methyl-3a,4,9,10-tetrahydro-2,9,10a-triaza-cyclopenta[b]fluorene-1,3-dione], the 50% effective concentration (EC50) is 0.0398 to 0.251 µM.
Under `CCOc1ccc2[nH]c3c(c2c1)C[C@@]1(C)C(=O)N(CCCN2CCC(C)CC2)C(=O)N1[C@@H]3c1cccc(O)c1` (racemic) [Example 224, (3aSR,10RS)-6-Ethoxy-10-(3-hydroxy-phenyl)-3a-methyl-2-[3-(4-methyl-piperidin-1-yl)-propyl]-3a,4,9,10-tetrahydro-2,9,10a-triaza-cyclopenta[b]fluorene-1,3-dione] stands 0.0398 to 0.251 µM.
Regarding `CC(C)NCCN1C(=O)N2[C@H](c3cccc(O)c3)c3[nH]c4ccc(Br)cc4c3C[C@@]2(C)C1=O` (racemic) [Example 233, (3aSR,10RS)-6-Bromo-10-(3-hydroxy-phenyl)-2-(2-ispropylamino-ethyl)-3a-methyl-3a,4,9,10-tetrahydro-2,9,10a-triaza-cyclopenta[b]fluorene-1,3-dione], the EC50 is no more than 0.0398 µM.
Under `CNCCN1C(=O)N2[C@H](c3cccc(O)c3)c3[nH]c4ccc(OC)c(F)c4c3C[C@@]2(C)C1=O` (racemic) [Example 406, (3aSR,10RS)-5-Fluoro-10-(3-hydroxy-phenyl)-6-methoxy-3a-methyl-2-(2-methylamino-ethyl)-3a,4,9,10-tetrahydro-2,9,10a-triaza-cyclopenta[b]fluorene-1,3-dione] stands 0.0398 to 0.251 µM.
Under `C[C@@]12Cc3c([nH]c4ccc(OC(F)F)cc34)[C@@H](c3cccc(O)c3)N1C(=O)N(CCCN1CC=CCC1)C2=O` (racemic) [Example 242, (3aSR,10RS)-6-(1,1-Difluoro-methoxy)-2-[3-(3,6-dihydro-2H-pyridin-1-yl)-propyl]-10-(3-hydroxy-phenyl)-3a-methyl-3a,4,9,10-tetrahydro-2,9,10a-triaza-cyclopenta[b]fluorene-1,3-dione] stands no more than 0.0398 µM; under `CC1CCN(CCN2C(=O)N3[C@H](c4cccc(O)c4)c4[nH]c5ccc(OC(F)F)cc5c4C[C@@]3(C)C2=O)CC1` (racemic) [Example 293, (3aSR,10RS)-6-(1,1-Difluoro-methoxy)-10-(3-hydroxy-phenyl)-3a-methyl-2-[2-(4-methyl-piperidin-1-yl)-ethyl]-3a,4,9,10-tetrahydro-2,9,10a-triaza-cyclopenta[b]fluorene-1,3-dione], 0.0398 to 0.251 µM.
With `C=CCNCCN1C(=O)N2[C@H](c3cccc(O)c3)c3[nH]c4cc(F)c(OC)cc4c3C[C@@]2(C)C1=O` (racemic) [Example 254, (3aSR,10RS)-2-(2-Allylamino-ethyl)-7-fluoro-10-(3-hydroxy-phenyl)-6-methoxy-3a-methyl-3a,4,9,10-tetrahydro-2,9,10a-triaza-cyclopenta[b]fluorene-1,3-dione] the figure was 0.0398 to 0.251 µM; with `COc1ccc2[nH]c3c(c2c1F)C[C@@]1(C)C(=O)N(CCNC(C)C)C(=O)N1[C@@H]3c1cccc(O)c1` (racemic) [Example 408, (3aSR,10RS)-5-Fluoro-10-(3-hydroxy-phenyl)-2-{2-isopropylamino-ethyl)-6-methoxy-3a-methyl-3a,4,9,10-tetrahydro-2,9,10a-triaza-cyclopenta[b]fluorene-1,3-dione], 0.0398 to 0.251 µM; with `CCN(CC)CCN1C(=O)N2[C@H](c3cccc(O)c3)c3[nH]c4ccc(Br)cc4c3C[C@@]2(C)C1=O` (racemic) [Example 385, (3aSR,10RS)-6-Bromo-2-(2-diethylamino-ethyl)-10-(3-hydroxy-phenyl)-3a-methyl-3a,4,9,10-tetrahydro-2,9,10a-triaza-cyclopenta[b]fluorene-1,3-dione], no more than 0.0398 µM.
In the case of `COc1cc2c3c([nH]c2cc1F)[C@@H](c1cccc(O)c1)N1C(=O)N(CCCN2CCCC2)C(=O)[C@]1(C)C3` (racemic) [Example 322, (3aSR,10RS)-7-Fluoro-10-(3-hydroxy-phenyl)-6-methoxy-3a-methyl-2-(3-pyrrolidin-1-yl-propyl)-3a,4,9,10-tetrahydro-2,9,10a-triaza-cyclopenta[b]fluorene-1,3-dione], the EC50 was 0.0398 to 0.251 µM.
In the case of `CCN(CCO)CCCN1C(=O)N2[C@H](c3cccc(O)c3)c3[nH]c4ccc(Br)cc4c3C[C@@]2(C)C1=O` (racemic) [Example 231, (3aSR,10RS)-6-Bromo-2-{3-[ethyl-(2-hydroxy-ethyl)-amino]-propyl}-10-(3-hydroyx-phenyl)-3a-methyl-3a,4,9,10-tetrahydro-2,9,10a-triaza-cyclopenta[b]fluorene-1,3-dione], the EC50 is no more than 0.0398 µM.
Under `COc1cc2c3c([nH]c2cc1F)[C@@H](c1cccc(O)c1)N1C(=O)N(CCNCC(C)C)C(=O)[C@]1(C)C3` (racemic) [Example 252, (3aSR,10RS)-7-Fluoro-10-(3-hydroxy-phenyl)-2-(2-isobutylamino-ethyl)-6-methoxy-3a-methyl-3a,4,9,10-tetrahydro-2,9,10-triaza-cyclopenta[b]fluorene-1,3-dione] stands 0.0398 to 0.251 µM; under `CC(=O)N1CCN(CCCN2C(=O)N3[C@H](c4cccc(O)c4)c4[nH]c5ccc(Br)cc5c4C[C@@]3(C)C2=O)CC1` (racemic) [Example 220, (3aSR,10RS)-2-[3-(4-Acetyl-piperazin-1-yl)-propyl]-6-bromo-10-(3-hydroxy-phenyl)-3a-methyl-3a,4,9,10-tetrahydro-2,9,10a-triaza-cyclopenta[b]fluorene-1,3-dione], 0.0398 to 0.251 µM.
With `CNCCCN1C(=O)N2[C@H](c3cccc(O)c3)c3[nH]c4cc(F)c(Cl)cc4c3C[C@@]2(C)C1=O` (racemic) [Example 456, (3aSR,10RS)-6-Chloro-7-fluoro-10-(3-hydroxy-phenyl)-3a-methyl-2-(3-methylamino-propyl)-3a,4,9,10-tetrahydro-2,9,10a-triaza-cyclopenta[b]fluorene-1,3-dione] the figure was 0.0398 to 0.251 µM.
As to `C[C@@]12Cc3c([nH]c4cc(F)c(Cl)cc34)[C@@H](c3cccc(O)c3)N1C(=O)N(CCCN1CCOCC1)C2=O` (racemic) [Example 475, (3aSR,10RS)-6-Chloro-7-fluoro-10-(3-hydroxy-phenyl)-3a-methyl-2-(3-morpholin-4-yl-propyl)-3a,4,9,10-tetrahydro-2,9,10a-triaza-cyclopenta[b]fluorene-1,3-dione], the EC50 is 0.0398 to 0.251 µM.
Under `C[C@@]12Cc3c([nH]c4cc(F)c(Cl)cc34)[C@@H](c3cccc(O)c3)N1C(=O)N(CCNCC1CC1)C2=O` (racemic) [Example 341, (3aSR,10RS)-6-Chloro-2-[2-(cyclopropylmethyl-amino)-ethyl]-7-fluoro-10-(3-hydroxy-phenyl)-3a-methyl-3a,4,9,10-tetrahydro-2,9,10a-triaza-cyclopenta[b]fluorene-1,3-dione] stands no more than 0.0398 µM; under `COCCNCCCN1C(=O)N2[C@H](c3cccc(O)c3)c3[nH]c4ccc(Br)cc4c3C[C@@]2(C)C1=O` (racemic) [Example 214, (3aSR,10RS)-6-Bromo-10-(3-hydroxy-phenyl)-2-[3-(2-methoxy-ethylamino)-propyl]-3a-methyl-3a,4,9,10-tetrahydro-2,9,10a-triaza-cyclopenta[b]fluorene-1,3-dione], no more than 0.0398 µM.
With `CC(C)NCCN1C(=O)N2[C@H](c3cccc(O)c3)c3[nH]c4cc(F)c(Cl)cc4c3C[C@@]2(C)C1=O` (racemic) [Example 339, (3aSR,10RS)-6-Chloro-7-fluoro-10-(3-hydroxy-phenyl)-2-(2-isopropylamino-ethyl)-3a-methyl-3a,4,9,10-tetrahydro-2,9,10a-triaza-cyclopenta[b]fluorene-1,3-dione] the figure was no more than 0.0398 µM.
Under `CCOc1ccc2[nH]c3c(c2c1)C[C@@]1(C)C(=O)N(CCCN2CC=CCC2)C(=O)N1[C@@H]3c1cccc(O)c1` (racemic) [Example 208, (3aSR,10RS)-2-[3-(3,6-Dihydro-2H-pyridin-1-yl)-propyl]-6-ethoxy-10-(3-hydroyx-phenyl)-3a-methyl-3a,4,9,10-tetrahydro-2,9,10a-triaza-cyclopenta[b]fluorene-1,3-dione] stands 0.0398 to 0.251 µM; under `C=CCN(C)CCCN1C(=O)N2[C@H](c3cccc(O)c3)c3[nH]c4cc(F)c(OC)cc4c3C[C@@]2(C)C1=O` (racemic) [Example 317, (3aSR,10RS)-2-[3-(Allyl-methyl-amino)-propyl]-7-fluoro-10-(3-hydroyx-phenyl)-6-methoxy-3a-methyl-3a,4,9,10-tetrahydro-2,9,10a-triaza-cyclopenta[b]fluorene-1,3-dione], 0.0398 to 0.251 µM; under `CCOc1ccc2[nH]c3c(c2c1)C[C@@]1(C)C(=O)N(CCNCCO)C(=O)N1[C@@H]3c1cccc(O)c1` (racemic) [Example 159, (3aSR,10RS)-6-Ethoxy-2-[2-(2-hydroxy-ethylamino)-ethyl]-10-(3-hydroxy-phenyl)-3a-methyl-3a,4,9,10-tetrahydro-2,9,10a-triaza-cyclopenta[b]fluorene-1,3-dione], 0.0398 to 0.251 µM.
Turning to `C[C@@]12Cc3c([nH]c4ccc(Cl)cc34)[C@@H](c3cccc(O)c3)N1C(=O)N(CCCN1CCCCCC1)C2=O` (racemic) [Example 180, (3aSR,10RS)-2-(3-Azepan-1-yl-propyl)-6-chloro-10-(3-hydroxy-phenyl)-3a-methyl-3a,4,9,10-tetrahydro-2,9,10a-triaza-cyclopenta[b]fluorene-1,3-dione], the EC50 is no more than 0.0398 µM.
Under `CCOc1ccc2[nH]c3c(c2c1)C[C@@]1(C)C(=O)N(CCNC2CC2)C(=O)N1[C@@H]3c1cccc(O)c1` (racemic) [Example 161, (3aSR,10RS)-2-(2-Cyclopropylamino-ethyl)-6-ethoxy-10-(3-hydroxy-phenyl)-3a-methyl-3a,4,9,10-tetrahydro-2,9,10a-triaza-cyclopenta[b]fluorene-1,3-dione] stands 0.0398 to 0.251 µM.
